From US20100055712A1, “Oligopeptides for treatment of osteoporosis and other bone diseases and methods therefor” (Washington University, priority 2008, published 2010)
*1 amine or outer side, *2 acyl side, *3 side chain or, on linkers, in order; H or OH if unused. Where a SMILES comes first, the peptide text is derived from it. [ ]: non-standard residue; d: D form. The star is where a group is joined. X1 = CC(N[*:1])C(=O)C(F)(F)C(=O)[*:2]; Boc = CC(C)(C)OC(=O)*

These compounds were tested on LRP1 expression in WT MEF cells (assay: LRP1 expression in WT MEF cells after treatment with γ-secretase inhibitors (western blot)). Details: FIGS. 5I and 5J.
Type: cell-based, mouse
Source text: The requirement of γ-secretase activity in LRP1 regulation was further verified by two alternative approaches.

For `C[C@H](NC(=O)Cc1cc(F)cc(F)c1)C(=O)N[C@H](C(=O)OC(C)(C)C)c1ccccc1` [DAPT], which LRP1 expression is on record?
The LRP1 expression was “enhanced LRP1 expression”.

For `CCC(C)C(NC(=O)C(NC(=O)OC(C)(C)C)C(C)C)C(=O)NC(C)C(=O)C(F)(F)C(=O)NC(C(=O)NC(C(=O)OC)C(C)CC)C(C)C` (stereo not drawn) [DFK, DFK167] (Boc-VI[X1]VI-OMe; configuration not given here), which LRP1 expression is on record?
The LRP1 expression was “enhanced LRP1 expression”.

With `CC(C)C[C@H](NC(=O)[C@H](Cc1ccccc1)C[C@@H](O)[C@H](Cc1ccccc1)NC(=O)OC(C)(C)C)C(=O)N[C@@H](Cc1ccccc1)C(N)=O` [L685,458] as the compound, how does the LRP1 expression read?
The LRP1 expression was “enhanced LRP1 expression”.
